Patent US20220395472A1 (Dermavant Sciences GmbH, priority 2021, published 2022)

Test system: adults with plaque psoriasis
Test: Long-term open-label extension study (PSOARING 3): Physician Global Assessment (PGA), treatment episodes, treatment success, remittive effect
Format: in vivo, human
Method: This extension study consisted of up to 40 weeks of treatment and a 4 week, safety follow up period.
At the completion of the Week 12 visit of the DB, pivotal Phase 3 study, eligibility of the subjects opting to enroll in this extension study was confirmed. Study visits during the treatment period for all subjects occurred every 4 weeks (±3 days). A phone call was performed at Week 2 (Day 15). Unscheduled visits may have occurred, as needed. Subjects who withdrew from this study before Week 40 returned to the study center for an Early Termination visit. The total duration of this extension study participation was 44 weeks. Subjects in this study were treated as follows based on their PGA score from the Week 12 visit in the DB, pivotal Phase 3 study (Study DMVT 505 3001 or Study DMVT 505 3002).
The PGA was used to assess the primary efficacy endpoint in this study. The PGA is a clinical tool for assessing the current state/severity of a subject's psoriasis at a given time point. It is a static, 5 point, morphological assessment of overall disease severity, as determined by the Investigator, using the clinical characteristics of erythema, scaling, and plaque thickness/elevation as guidelines; higher PGA scores represent more severe disease (0=clear, 1=almost clear, 2=mild, 3=moderate, and 4=severe). The BSA affected was not considered in scoring of the PGA. Variations of the PGA are frequently used in clinical studies because it is a simple assessment, similar to those used in clinical practice. The PGA was performed first, prior to the % BSA, PASI, and LTS assessments.
Time to event parameters, such as the time from treatment success to subsequent worsening (PGA≥2) or duration of treatment episode, were summarized by the Kaplan Meier product limit method using OC.

[1] = Week 40, LOCF, Tapinarof (Pivotal) group
[2] = Week 40, OC, Vehicle (Pivotal) group
[3] = Week 40 LOCF, Tapinarof (Pivotal)
[4] = Week 40 LOCF, Vehicle (Pivotal)
[5] = Week 40 OC, Tapinarof (Pivotal)

CC(C)c1c(O)cc(/C=C/c2ccccc2)cc1O [Tapinarof, 3,5-Dihydroxy-4-isopropyl-trans-stilbene]
PGA Change from Baseline: Improved by 4 (Week 16 OC, Vehicle (Pivotal)): 1 (0.5) n (%)
PGA Change from Baseline: No Change (Week 16 OC, Vehicle (Pivotal)): 59 (28.2) n (%)
PGA Change from Baseline: Worsened by 1 (Week 16 OC, Vehicle (Pivotal)): 6 (2.9) n (%)
PGA Change from Baseline: Worsened by 2 (Week 16 OC, Vehicle (Pivotal)): 2 (1.0) n (%)
PGA Change from Baseline: Worsened by 3 (Week 16 OC, Vehicle (Pivotal)): 0 (0.0) n (%)
PGA Change from Baseline: Worsened by 4 (Week 16 OC, Vehicle (Pivotal)): 0 (0.0) n (%)
Subjects with PGA=0 [1]: 15.4%
Subjects with PGA=1 [1]: 30.0%
Subjects with PGA=1 (Week 40, LOCF, Vehicle (Pivotal) group): 27.4%
Subjects with PGA=1 (Week 40, OC, Tapinarof (Pivotal) group): 30.1%
Subjects with PGA=0 [2]: 23.9%
Subjects with PGA=1 [2]: 31.9%
PGA 0 - Clear (Week 40 LOCF, Overall): 118 (15.8) n (%)
PGA 1 - Almost Clear (Week 40 LOCF, Overall): 217 (29.1) n (%)
PGA 2 - Mild (Week 40 LOCF, Overall): 253 (34.0) n (%)
PGA 3 - Moderate (Week 40 LOCF, Overall): 146 (19.6) n (%)
PGA 4 - Severe (Week 40 LOCF, Overall): 11 (1.5) n (%)
PGA Change from Baseline: Improved by 1 (Week 40 LOCF, Overall): 194 (26.1) n (%)
PGA Change from Baseline: Improved by 2 (Week 40 LOCF, Overall): 88 (11.9) n (%)
PGA Change from Baseline: Improved by 3 (Week 40 LOCF, Overall): 27 (3.6) n (%)
PGA Change from Baseline: Improved by 4 (Week 40 LOCF, Overall): 2 (0.3) n (%)
PGA Change from Baseline: No Change (Week 40 LOCF, Overall): 282 (38.0) n (%)
PGA Change from Baseline: Worsened by 2 (Week 40 LOCF, Overall): 37 (5.0) n (%)
PGA Change from Baseline: Worsened by 3 (Week 40 LOCF, Overall): 4 (0.5) n (%)
PGA Change from Baseline: Worsened by 4 (Week 40 LOCF, Overall): 0 (0.0) n (%)
PGA 0 - Clear [3]: 76 (15.4) n (%)
PGA 1 - Almost Clear [3]: 148 (30.0) n (%)
PGA 2 - Mild [3]: 171 (34.7) n (%)
PGA 3 - Moderate [3]: 91 (18.5) n (%)
PGA 4 - Severe [3]: 7 (1.4) n (%)
PGA Change from Baseline: Improved by 1 [3]: 110 (22.4) n (%)
PGA Change from Baseline: Improved by 2 [3]: 31 (6.3) n (%)
PGA Change from Baseline: Improved by 3 [3]: 5 (1.0) n (%)
PGA Change from Baseline: Improved by 4 [3]: 1 (0.2) n (%)
PGA Change from Baseline: No Change [3]: 211 (43.0) n (%)
PGA Change from Baseline: Worsened by 1 [3]: 95 (19.3) n (%)
PGA Change from Baseline: Worsened by 2 [3]: 34 (6.9) n (%)
PGA Change from Baseline: Worsened by 3 [3]: 4 (0.8) n (%)
PGA Change from Baseline: Worsened by 4 [3]: 0 (0.0) n (%)
PGA 0 - Clear [4]: 42 (16.7) n (%)
PGA 1 - Almost Clear [4]: 69 (27.4) n (%)
PGA 2 - Mild [4]: 82 (32.5) n (%)
PGA 3 - Moderate [4]: 55 (21.8) n (%)
PGA 4 - Severe [4]: 4 (1.6) n (%)
PGA Change from Baseline: Improved by 1 [4]: 84 (33.5) n (%)
PGA Change from Baseline: Improved by 2 [4]: 57 (22.7) n (%)
PGA Change from Baseline: Improved by 3 [4]: 22 (8.8) n (%)
PGA Change from Baseline: Improved by 4 [4]: 1 (0.4) n (%)
PGA Change from Baseline: No Change [4]: 71 (28.3) n (%)
PGA Change from Baseline: Worsened by 1 [4]: 13 (5.2) n (%)
PGA Change from Baseline: Worsened by 2 [4]: 3 (1.2) n (%)
PGA Change from Baseline: Worsened by 3 [4]: 0 (0.0) n (%)
PGA Change from Baseline: Worsened by 4 [4]: 0 (0.0) n (%)
PGA 0 - Clear (Week 40 OC, Overall): 68 (19.5) n (%)
PGA 1 - Almost Clear (Week 40 OC, Overall): 107 (30.7) n (%)
PGA 2 - Mild (Week 40 OC, Overall): 116 (33.2) n (%)
PGA 3 - Moderate (Week 40 OC, Overall): 57 (16.3) n (%)
PGA 4 - Severe (Week 40 OC, Overall): 1 (0.3) n (%)
PGA Change from Baseline: Improved by 1 (Week 40 OC, Overall): 99 (28.4) n (%)
PGA Change from Baseline: Improved by 2 (Week 40 OC, Overall): 46 (13.2) n (%)
PGA Change from Baseline: Improved by 3 (Week 40 OC, Overall): 19 (5.4) n (%)
PGA Change from Baseline: Improved by 4 (Week 40 OC, Overall): 1 (0.3) n (%)
PGA Change from Baseline: No Change (Week 40 OC, Overall): 105 (30.1) n (%)
PGA Change from Baseline: Worsened by 1 (Week 40 OC, Overall): 55 (15.8) n (%)
PGA Change from Baseline: Worsened by 2 (Week 40 OC, Overall): 21 (6.0) n (%)
PGA Change from Baseline: Worsened by 3 (Week 40 OC, Overall): 3 (0.9) n (%)
PGA Change from Baseline: Worsened by 4 (Week 40 OC, Overall): 0 (0.0) n (%)
PGA 0 - Clear [5]: 41 (17.4) n (%)
PGA 1 - Almost Clear [5]: 71 (30.1) n (%)
PGA 2 - Mild [5]: 81 (34.3) n (%)
PGA 3 - Moderate [5]: 42 (17.8) n (%)
PGA 4 - Severe [5]: 1 (0.4) n (%)
PGA Change from Baseline: Improved by 1 [5]: 58 (24.6) n (%)
PGA Change from Baseline: Improved by 2 [5]: 19 (8.1) n (%)
PGA Change from Baseline: Improved by 3 [5]: 2 (0.8) n (%)
PGA Change from Baseline: Improved by 4 [5]: 0 (0.0) n (%)
PGA Change from Baseline: No Change [5]: 86 (36.4) n (%)
PGA Change from Baseline: Worsened by 1 [5]: 48 (20.3) n (%)
PGA Change from Baseline: Worsened by 2 [5]: 20 (8.5) n (%)
PGA Change from Baseline: Worsened by 3 [5]: 3 (1.3) n (%)
PGA Change from Baseline: Worsened by 4 [5]: 0 (0.0) n (%)
PGA 0 - Clear (Week 40 OC, Vehicle (Pivotal)): 27 (23.9) n (%)
PGA 1 - Almost Clear (Week 40 OC, Vehicle (Pivotal)): 36 (31.9) n (%)
